The text below walks through data of patent US9868956B2, “Methods” (North Carolina State University, priority 2009, dated 2018).

Assay [1] concerns the target T1, MbPyIRS/tRNACUA pair (Methanosarcina barkeri, UniProt Q6WRH6).
T1 construct: expressed in transfected cells; host or cells: E. coli DH10B transformed with pBKPylS and pMyo4TAGPylT-his6
Briefly: Expression of myoglobin-his6 (amber codon at position 4) in E. coli with the MbPyIRS/tRNACUA pair in the presence of the amino acid. The format is cell-based. To be noted: for yield of full-length myoglobin-his6 purified by Ni-NTA chromatography: E. coli with pBKPylS and pMyo4TAGPylT-his6, amino acid added to log phase cells (1 mM for 1 and 2); for incorporation by the MbPyIRS/tRNACUA pair (myoglobin-his6 purified by Ni-NTA chromatography): E. coli, 1 mM amino acid. As to the method: To investigate whether 1 and 2 are substrates for the MbPyIRS/tRNACUA pair, we transformed E. coli with pBKPylS10 (which encodes MbPyIRS) and pMyo4TAGPylT-his610 (which encodes MbtRNACUA and a C-terminally hexahistidine tagged myoglobin gene with an amber codon at position 4). We added 1 or 2 (1 mM) to log phase cells and induced myoglobin-his6 expression. […] This may reflect the greater flexibility of the carbamate linkage. The yield of protein containing 2 was not improved by efforts to evolve the enzyme but was increased 5-fold by increasing the concentration of 2 7.5 fold (Supplementary FIG. 2A).
To investigate if the carbamate linkage provides a general route to the incorporation of other functional groups suitable for bioconjugation, we synthesized a simple aliphatic azide 3 (2 steps, 80% yield, Supplementary Scheme 1 and Supplementary Methods).
To express sperm whale myoglobin with an incorporated unnatural amino acid, we transformed E. coli DH10B cells with pBKPylS and pMyo4TAGPylT-his6. Cells were recovered in 1 mL of LB media for 1 h at 37° C., before incubation (16 h, 37° C., 250 r.p.m.) in 100 mL of LB containing kanamycin (50 μg/mL) and tetracycline (25 μg/mL). 20 mL of this overnight culture was used to inoculate 500 mL of LB supplemented with kanamycin (25 μg/mL), tetracycline (12 μg/mL) and 2 mM of 2. Cells were grown (37° C., 250 r.p.m.), and protein expression was induced at OD600-0.6, by addition of arabinose to a final concentration of 0.2%. After 3 h of induction, cells were harvested. Proteins were extracted by sonication at 4° C. The extract was clarified by centrifugation (20 min, 21,000 g, 4° C.), 300 μL of Ni^2+-NTA beads (Qiagen) were added to the extract, the mixture was incubated with agitation for 1 h at 4° C. Beads were collected by centrifugation (10 min, 1000 g). The beads were twice resuspended in 50 mL wash buffer and spun down at 1000 g. Subsequently, the beads were resuspended in 20 ml of wash buffer and transferred to a column. Protein was eluted in 1 ml of wash buffer supplemented with 200 mM imidazole and was then re-buffered to 20 mM ammonium bicarbonate using a sephadex G25 column. The purified proteins were analysed by 4-12% SDS-PAGE.
E. coli DH10B cells containing pBKPylS and pMyo4TAGPylT were inoculated into LB containing kanamycin (50 μg/mL) and tetracycline (25 μg/mL). The cells were incubated with shaking overnight at 37° C. 200 μL of cells were inoculated into each of 3 mL LB aliquots containing kanamycin (25 μg/mL) and tetracycline (12 μg/mL) and supplemented with different concentrations (7.5 mM, 5 mM, 2.5 mM, 1 mM, 0.75 mM, 0.5 mM, 0.25 mM, 0.1 mM, 0 mM) of 2. After 3 h of incubation with shaking at 37° C., protein expression was induced by the addition of 30 μL of 20% arabinose. After 12 h of expression, cell were collected by centrifugation (16000 g, 5 min) of 1 mL of cell suspension. The cells were resuspended in 100 μL of NuPAGE SDS Sample buffer supplemented with 10% f3-mercaptoethanol, heated at 80° C. for 10 min and centrifuged at 16000 g for 10 min. The crude cell lysate was analysed by 4-12% SDS-PAGE. Western blots were performed with antibodies against the hexahistidine tag (Invitrogen AntiHis monoclonal Mouse antibody).

Assay [2] in a line: Labeling of myoglobin-his6 bearing 2 with azido-probes via copper catalysed [3+2] cycloaddition. Conditions: biotin azide 5 or By3 azide 6; CuSO4/ascorbate/ligand, pH 8.3. How it is done:
In control experiments myoglobin-his6 bearing 3 at position 4 was treated identically. After 18 h, the purified labeling reactions were probed (FIG. 2A).
Quantification of the ratio of biotin or By3 to protein in purified samples provides independent confirmation of the labeling efficiency (Supplementary Methods).
Protein was re-buffered to 100 mM sodium phosphate buffer (pH 8.3) and concentrated to 2.5 mg/mL. 100 mM stock solutions of CuSO4, sulfonated bathophenanthroline sodium salt (GFS Chemicals) and sodium ascorbate in water were prepared, pre-mixed and incubated at room temperature for 5 min. Myoglobin containing 2 (13.5 nmol) was reacted for 15 minutes at 25° C., then 4° C. for 18 h with the biotin azide (Quanta Biodesign) 5 or the By3 azide (Primetech LTD) 6 (50 equivalents, 10 mM in DMSO) and CuSO4 (1 mM)/ascorbate (1 mM)/ligand (2 mM)^20. After 18 h, the solutions were diluted to 1 mL and loaded onto an Illustra™ NAP-10 column. Proteins were eluted into 1.5 mL of 20 mM NH4HCO3, dialyzed overnight with 20 mM NH4HCO3, loaded onto PD10 and eluted into 3.5 mL 20 mM NH4HCO3. […] Protein concentration of the labeled samples were measured by BCA Protein Assay (Thermo Scientific). The Biotin Quantitation Kit (Thermo Scientific) was used to quantify biotin-conjugated protein in labeled samples, and the By3 absorbance at 550 nm was used to quantify purified By3-labeled protein. […]

T1 sequence (Q6WRH6 whole entry): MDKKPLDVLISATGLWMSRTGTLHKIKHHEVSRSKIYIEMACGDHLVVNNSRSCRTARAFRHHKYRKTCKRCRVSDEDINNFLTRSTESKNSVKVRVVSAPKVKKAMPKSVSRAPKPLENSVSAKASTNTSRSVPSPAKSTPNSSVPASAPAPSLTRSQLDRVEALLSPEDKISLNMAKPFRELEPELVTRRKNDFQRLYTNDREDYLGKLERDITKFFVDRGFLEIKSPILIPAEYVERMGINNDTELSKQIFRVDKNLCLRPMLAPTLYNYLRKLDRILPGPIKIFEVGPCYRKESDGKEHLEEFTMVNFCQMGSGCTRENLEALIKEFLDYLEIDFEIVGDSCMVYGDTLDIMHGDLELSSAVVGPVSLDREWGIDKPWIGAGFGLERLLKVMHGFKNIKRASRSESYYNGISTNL

With `O=C(O)C(F)(F)F.[N-]=[N+]=NCCOC(=O)NCCCC[C@H](N)C(=O)O` [compound 3, (S)-2-amino-6-((2-azidoethoxy)carbonylamino)hexanoic acid TFA salt], the “yield of full-length myoglobin-his6 purified by Ni-NTA chromatography” value in assay [1] was 3 mg/L.
Regarding `C#CCCC(=O)NCCCC[C@H](N)C(=O)O.O=C(O)C(F)(F)F` [compound 1, (S)-2-amino-6-pent-4-ynamidohexanoic acid TFA salt], the “incorporation by the MbPyIRS/tRNACUA pair (myoglobin-his6 purified by Ni-NTA chromatography)” value in assay [1] was “only background levels”.
Take `C#CCOC(=O)NCCCC[C@H](N)C(=O)O.O=C(O)C(F)(F)F` [compound 2, (S)-2-amino-6-((prop-2-ynyloxy)carbonylamino)hexanoic acid TFA salt]: in assay [1], the “yield of full-length myoglobin-his6 purified by Ni-NTA chromatography” value was 2 mg/L and the “incorporation by the MbPyIRS/tRNACUA pair (myoglobin-his6 purified by Ni-NTA chromatography)” value is “incorporated”. In addition, in assay [1] (on increasing the concentration of 2 7.5 fold, Western blot against his-6 in cell lysates), the “increase in yield of protein containing 2” value is given as 5 fold. Besides, the “labeling of genetically encoded alkyne with azides that introduce biotin or fluorescent groups” value in assay [2] is “specifically and efficiently labeled”.
